Values of other authors in patent US20200281890A1, “COMPOSITIONS COMPRISING CANNABIDIOL, TETRAHYDROCANNABINOL, TERPENES, AND […] USE THEREOF IN THE TREATMENT OF INSOMNIA” (CANOPY HEALTH INNOVATIONS, priority 2017, published 2020).

Legend:
[1] = tested on: mice, rats, gerbils and non-human primates
5-HT1A receptor = molecular target: T1, 5-HT1A receptor (Homo sapiens, UniProt P08908)
T1 sequence (P08908 1-422): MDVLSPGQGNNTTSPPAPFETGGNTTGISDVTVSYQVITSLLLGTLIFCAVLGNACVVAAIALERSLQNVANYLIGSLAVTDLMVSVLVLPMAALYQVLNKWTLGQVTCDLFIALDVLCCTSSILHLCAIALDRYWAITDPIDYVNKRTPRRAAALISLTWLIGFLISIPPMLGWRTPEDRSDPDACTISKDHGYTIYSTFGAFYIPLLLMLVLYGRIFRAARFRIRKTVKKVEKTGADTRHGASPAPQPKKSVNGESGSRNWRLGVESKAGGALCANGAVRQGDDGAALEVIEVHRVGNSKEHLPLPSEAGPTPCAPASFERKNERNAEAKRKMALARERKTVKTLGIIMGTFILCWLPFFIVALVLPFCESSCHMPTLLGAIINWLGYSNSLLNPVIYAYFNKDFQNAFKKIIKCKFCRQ

CB2 receptor = CB2 receptor (Homo sapiens, UniProt P34972)
CB1 receptor = CB1 receptor (Homo sapiens, UniProt P21554)
mouse = details: up to 80 mg/kg

CB1 receptor, sequence (P21554 whole entry): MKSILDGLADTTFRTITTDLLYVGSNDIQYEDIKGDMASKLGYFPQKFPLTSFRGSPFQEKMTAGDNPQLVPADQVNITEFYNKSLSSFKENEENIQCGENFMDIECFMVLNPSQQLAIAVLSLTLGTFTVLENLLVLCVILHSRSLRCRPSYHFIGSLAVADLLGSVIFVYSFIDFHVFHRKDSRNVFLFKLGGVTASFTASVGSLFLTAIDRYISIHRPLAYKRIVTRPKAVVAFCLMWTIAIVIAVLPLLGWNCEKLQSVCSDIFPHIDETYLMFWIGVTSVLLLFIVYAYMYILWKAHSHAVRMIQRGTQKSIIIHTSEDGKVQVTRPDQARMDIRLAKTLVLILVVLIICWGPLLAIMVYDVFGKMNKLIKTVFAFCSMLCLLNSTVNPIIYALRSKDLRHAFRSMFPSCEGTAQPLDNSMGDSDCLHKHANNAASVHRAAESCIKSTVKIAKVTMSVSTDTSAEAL
CB2 receptor, sequence (P34972 whole entry): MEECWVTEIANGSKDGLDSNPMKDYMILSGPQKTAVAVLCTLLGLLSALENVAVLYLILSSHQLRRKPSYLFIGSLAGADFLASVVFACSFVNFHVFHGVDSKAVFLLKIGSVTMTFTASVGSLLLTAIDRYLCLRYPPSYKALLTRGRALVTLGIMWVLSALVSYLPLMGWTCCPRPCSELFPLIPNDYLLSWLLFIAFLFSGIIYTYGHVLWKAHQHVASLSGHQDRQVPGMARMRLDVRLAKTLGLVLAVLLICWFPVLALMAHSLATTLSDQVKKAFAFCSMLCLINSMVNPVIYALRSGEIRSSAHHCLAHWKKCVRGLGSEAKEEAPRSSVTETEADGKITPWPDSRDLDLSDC

Structure (SMILES) | THC-like activity [1] | 5-HT1A receptor affinity and function (5-HT1A receptor) | CB2 receptor binding and function (CB2 receptor) | a2-adrenergic receptor affinity and function (a2-adrenergic receptor) | CB1 receptor affinity and function (CB1 receptor) | effect in mouse tetrad test (locomotor suppression, catalepsy, hypothermia and analgesia) (mouse) | affinity to CB2 receptors relative to CB1 (CB2 receptor; lower affinities in comparison to THC) | function at the CB1 receptors (CB1 receptor)
CCCCCc1cc(O)c(C/C=C(\C)CCC=C(C)C)c(O)c1 [CBG, cannabigerol] | does not trigger THC-like activity | moderate affinity 5-HT1A receptor antagonist | antagonist | high affinity a2-adrenergic receptor agonist | low affinity CB1 receptor antagonist | without effect | – | –
CCCCCc1cc(O)c2c(c1)OC(C)(C)c1ccc(C)cc1-2 [CBN, cannabinol] | – | – | – | – | – | – | higher affinity to CB2 receptors | partial agonist
